Key:
Bovine Serum Albumin = Bovine Serum Albumin (Bos taurus, UniProt P02769); assay: Bovine Serum Albumin Assay (BSA), inhibition of protein denaturation; format: biochemical; conditions: BSA 0.4% w/v, pH 6.4, 72° C. for 10 minutes, 20-100 μg/mL, turbidity at 660 nm
Procedure: In vitro-inflammatory activities of the tested samples were determined using a modified method of the BSA assay reported by Williams et al. BSA solution (0.4%, w/v) was prepared in Tris Buffered Saline. The pH was adjusted to 6.4 with glacial acetic acid. Different dilutions of 20, 40, 60, 80, and 100 μg/mL of the stock solutions were added to test tubes containing 1 mL of 0.4%, w/v BSA buffer solution. Both negative (solvent) and positive (aspirin) controls were assayed in a similar manner. The solutions were then heated in a water bath at 72° C. for 10 minutes and cooled for 20 minutes under laboratory conditions. The turbidity of the solutions (level of protein precipitation) was measured at 660 nm in Spectrophotometer (V-770 UV-Visible/NIR Spectrophotometer).
The percentage inhibition of precipitation (protein denaturation) was determined relative to the negative control using the following equation:
[formula] % Anti-Denaturation Activity=% Inhibition of Protein Denaturation=% Anti-inflammatory Activity

[1] = test system: human osteosarcoma cells (MG-63); assay: Cytotoxicity by SRB assay, MG-63 cells; format: cell-based; conditions: osteosarcoma (MG-63) cells, 72 h, 0.01 μM to 100 μM
Procedure: (§1) The human prostate cancer cells (PC3) and human osteosarcoma cells (MG-63) were obtained from Nawah Scientific Inc. (Mokatam, Cairo, Egypt) and cultured in DMEM (Dulbecco's modified eagle's medium), Gibco, USA, supplemented with fetal bovine serum (FBS) at a concentration of 10% and 100 U/mL of penicillin and streptomycin (PS). The Cells were incubated at 37° C. in a humidified environment that contained 5% CO2.
(§2) Cells were seeded in 96-well plates as aliquots of 100 μL cell suspension and incubated in a complete media for 24 h. afterward, cells were treated with N′-(1-naphthoyloxy)-2-(benzo[d]thiazol-2-yl)acetimidamide at diverse concentrations ranging from 0.01 μM to 100 μM for 72 h. Then, cells were fixed at 4° C. for one hour with 150 μL of 10% trichloroacetic acid (TCA). After washing the cells five times with distilled water, 70 μL of sulforhodamine (SRB) solution (0.4% w/v) was added and incubated for 10 min at room temperature in a dark place. […] Then, 150 μL of Tris pH 10.5 (10 mM) was added, and the absorbance was measured at 540 nm using a BMG LABTECH®-FLUOstar Omega microplate reader (Ortenberg, Germany). Half maximal inhibitory concentrations (IC50) values were calculated for each experiment using GraphPad Prism 6 software. […]
(§3) The inhibition was calculated using the following equation: Inhibition %=100−Average Viability

[2] = test system: human prostate cancer cells (PC3); assay: Cytotoxicity by SRB assay, PC3 cells; format: cell-based; conditions: androgen-independent metastatic human prostate cancer cells (PC3), 72 h, 0.01 μM to 100 μM
Procedure: as §1, §2, §3

Chain of Bovine Serum Albumin (P02769 25-607): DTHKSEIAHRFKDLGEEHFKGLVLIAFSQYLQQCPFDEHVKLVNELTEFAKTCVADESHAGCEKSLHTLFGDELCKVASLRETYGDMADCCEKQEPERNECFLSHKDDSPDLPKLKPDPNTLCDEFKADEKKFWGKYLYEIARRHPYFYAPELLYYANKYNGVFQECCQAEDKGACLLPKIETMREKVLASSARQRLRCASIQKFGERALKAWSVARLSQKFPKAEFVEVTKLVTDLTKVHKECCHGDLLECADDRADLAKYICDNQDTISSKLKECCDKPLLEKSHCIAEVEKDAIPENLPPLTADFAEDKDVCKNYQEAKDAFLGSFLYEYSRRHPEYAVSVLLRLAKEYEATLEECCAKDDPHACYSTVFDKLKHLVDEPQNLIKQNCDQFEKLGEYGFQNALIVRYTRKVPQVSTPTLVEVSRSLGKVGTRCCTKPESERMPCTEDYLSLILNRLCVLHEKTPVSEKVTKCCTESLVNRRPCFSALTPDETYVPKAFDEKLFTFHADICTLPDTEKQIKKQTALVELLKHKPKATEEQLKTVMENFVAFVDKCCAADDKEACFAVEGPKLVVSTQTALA

in vitro anti-inflammatory activity (inhibition of protein denaturation) (Bovine Serum Albumin): considerable anti-inflammatory effect
Compound: COc1ccc(/C=N/c2nn(CN3CCN(c4cc5c(cc4F)c(=O)c(C(=O)O)cn5C4CC4)CC3)c(=S)s2)cc1 [1-cyclopropyl-6-fluoro-7-(4-((5-(4-methoxybenzylideneamino)-2-thioxo-1,3,4-thiadiazol-3(2H)-yl)methyl)piperazin-1-yl)-4-oxo-1,4-dihydroquinoline-3-carboxylic acid]
antiproliferative activity against MG-63 cells [1]: excellent antiproliferative activities
antiproliferative activity against PC3 cells [2]: excellent antiproliferative activities

Source: patent publication US12187718B1, “1-cyclopropyl-6-fluoro-7-(4-((5-(4-methoxybenzylideneamino)-2-thioxo-1,3,4-thiadiazol-3(2H)-yl)methyl)piperazin-1-yl)-4-oxo-1,4-dihydroquinoline-3-carboxylic acid as an anti-inflammatory and anticancer compound” (KING FAISAL UNIVERSITY, priority 2023, dated 2025)
